We go through 15 compounds from PubChem BioAssay (NCI).

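Assay format: 96-well plates, 48-hour exposure. TGI denotes the concentration required for complete inhibition of growth.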 Some results are limits rather than exact numbers.

Some test systems named below: A549 NSCLC; BT-549 breast; CAKI-1 renal; CCRF-CEM leukemia; EKVX NSCLC; HCC-2998 colon; HCT-15 colon; HOP-92 NSCLC; HS 578T breast; IGROV1 ovarian; K-562 leukemia; MDA-MB-231 breast; NCI-H460 lung; SF-539 CNS; UACC-257 melanoma; NCI/ADR-RES ovarian; SK-OV-3 ovarian.
Assay in all cases: inhibition of tumour cell growth, NCI panel, 48 h

On to `COc1ccc2c(O)c(Oc3ccc(Cl)cc3)c(=O)oc2c1`, for which the TGI with A549 NSCLC, in the assay with BT-549 breast, with CAKI-1 renal, with CCRF-CEM leukemia, in the assay with EKVX NSCLC and in the assay on HCC-2998 colon was greater than 100 µM in each case. Besides, the TGI in the assay with HCT-15 colon, in the assay with HOP-92 NSCLC, with HS 578T breast, with IGROV1 ovarian, with K-562 leukemia and in the assay with MDA-MB-231 breast was greater than 100 µM each time. Besides, the TGI in the assay with NCI-H460 lung, in the assay on SF-539 CNS and in the assay on UACC-257 melanoma was greater than 100 µM throughout.
Take `O=C(CC(NC(=O)OCc1ccccc1)C(=O)NC1Cc2ccccc2C1=O)OCc1ccccc1` (centres undefined): the TGI in the assay with A549 NSCLC, with BT-549 breast, with CAKI-1 renal, in the assay on EKVX NSCLC, in the assay with HCC-2998 colon and in the assay with HCT-15 colon was greater than 100 µM in each case. Besides, the TGI with HS 578T breast, in the assay with IGROV1 ovarian, with K-562 leukemia, in the assay with NCI-H460 lung, with NCI/ADR-RES ovarian and with SF-539 CNS was greater than 100 µM in each case. Moreover, the TGI in the assay with SK-OV-3 ovarian and in the assay with UACC-257 melanoma was greater than 100 µM each time.
For the compound `Clc1ccc(/C=C/c2nc(-c3ccccc3)cn3c2nc2ccccc23)cc1Cl`, the TGI with A549 NSCLC was greater than 100 µM; in the assay on BT-549 breast, greater than 100 µM; in the assay with CCRF-CEM leukemia it was 48 µM; with EKVX NSCLC it was greater than 100 µM; in the assay on HCC-2998 colon it was greater than 100 µM; in the assay on HCT-15 colon it was greater than 100 µM. The TGI with HOP-92 NSCLC, with IGROV1 ovarian, with K-562 leukemia, in the assay with MDA-MB-231 breast, in the assay with NCI-H460 lung and in the assay with NCI/ADR-RES ovarian was greater than 100 µM in each case. The TGI in the assay with SF-539 CNS, with SK-OV-3 ovarian and in the assay on UACC-257 melanoma was greater than 100 µM each time.
In the case of `OCC(O)COCn1cc(Cn2ncc3c(SCc4ccccc4)ncnc32)nn1` (centres undefined), the TGI in the assay with A549 NSCLC, in the assay on BT-549 breast, with CAKI-1 renal, with CCRF-CEM leukemia, in the assay with EKVX NSCLC and with HCC-2998 colon was greater than 100 µM throughout. Moreover, the TGI in the assay with HCT-15 colon, with HOP-92 NSCLC, in the assay with IGROV1 ovarian, in the assay on K-562 leukemia, with MDA-MB-231 breast and in the assay with NCI/ADR-RES ovarian was greater than 100 µM throughout. The TGI with SF-539 CNS, in the assay on SK-OV-3 ovarian and with UACC-257 melanoma was greater than 100 µM throughout.
Turning to `Cc1cn2cc(-c3cccs3)nc2s1`, the TGI in the assay on A549 NSCLC, in the assay on BT-549 breast, with CAKI-1 renal, in the assay with CCRF-CEM leukemia, in the assay on EKVX NSCLC and with HCC-2998 colon was greater than 100 µM throughout. In addition, the TGI in the assay on HCT-15 colon, with HOP-92 NSCLC, in the assay with HS 578T breast, in the assay on IGROV1 ovarian, in the assay with K-562 leukemia and with MDA-MB-231 breast was greater than 100 µM each time. Moreover, the TGI with NCI-H460 lung, with SF-539 CNS, in the assay with SK-OV-3 ovarian and in the assay on UACC-257 melanoma was greater than 100 µM throughout.
Consider `COc1cc([C@@H]2c3cc4c(cc3[C@H](OC3OC5COC(c6ccco6)OC5C(O)C3O)C3COC(=O)[C@@H]32)OCO4)cc(OC)c1OC` (some centres undefined), for which the TGI in the assay with A549 NSCLC is greater than 100 µM; with BT-549 breast, 85.7 µM; with CAKI-1 renal it was greater than 69.9 µM; in the assay on HCC-2998 colon, greater than 100 µM; in the assay with HCT-15 colon it was greater than 100 µM; with HOP-92 NSCLC it was greater than 100 µM. Also, the TGI in the assay on HS 578T breast is greater than 100 µM; in the assay with IGROV1 ovarian it was greater than 52.7 µM; in the assay on MDA-MB-231 breast, greater than 100 µM; with NCI/ADR-RES ovarian, greater than 80.1 µM; with SF-539 CNS, greater than 100 µM; with SK-OV-3 ovarian, greater than 100 µM. The TGI with UACC-257 melanoma is greater than 100 µM.
With `O=C(c1ccc2ccccc2c1)C1(I)S(=O)(=O)OCCOS1(=O)=O`, the TGI in the assay on A549 NSCLC, in the assay with BT-549 breast, in the assay on CAKI-1 renal, with CCRF-CEM leukemia, with EKVX NSCLC and in the assay with HCC-2998 colon was greater than 100 µM in each case. Further, the TGI with HCT-15 colon, in the assay with K-562 leukemia, with MDA-MB-231 breast, with NCI-H460 lung and in the assay on NCI/ADR-RES ovarian was greater than 100 µM each time.
Regarding `CSC(=S)CC(O)[C@@H]1CC2c3ccccc3C1c1ccccc12` (some centres undefined), the TGI amounted to 34.4 µM in the assay with A549 NSCLC; 34.2 µM in the assay with BT-549 breast; 10.6 µM with CCRF-CEM leukemia; 28.2 µM in the assay on HCC-2998 colon; 25.6 µM with HCT-15 colon; 38.8 µM in the assay with HOP-92 NSCLC. Further, the TGI in the assay on HS 578T breast came to 80.2 µM; in the assay with IGROV1 ovarian, 33.1 µM; in the assay with K-562 leukemia, 30.4 µM; in the assay on MDA-MB-231 breast, 54.3 µM; in the assay with NCI-H460 lung, 40.8 µM; in the assay with NCI/ADR-RES ovarian, 54.7 µM. Also, the values for the TGI with SF-539 CNS and in the assay on SK-OV-3 ovarian were 37.8 µM and 28.7 µM, respectively.
`CC1(C)CNC(=O)C2(CCCO2)CNC(C)(C)CNC(=O)C2(CCCO2)CN1` (centres undefined): the TGI in the assay on A549 NSCLC, in the assay on BT-549 breast, in the assay with CAKI-1 renal, with CCRF-CEM leukemia, in the assay with HCC-2998 colon and in the assay with HCT-15 colon was greater than 10 µM throughout. In addition, the TGI with HOP-92 NSCLC, with HS 578T breast, in the assay with IGROV1 ovarian, with K-562 leukemia, in the assay with MDA-MB-231 breast and in the assay on NCI/ADR-RES ovarian was greater than 10 µM each time. For the same compound, the TGI in the assay with SF-539 CNS, in the assay on SK-OV-3 ovarian and with UACC-257 melanoma was greater than 10 µM each time.
Turning to `CCC(C)N1CN(c2ccccc2)C2(CCN(CC3COc4ccccc4O3)CC2)C1=O` (centres undefined), the TGI was greater than 100 µM with A549 NSCLC; 31.6 µM in the assay on BT-549 breast; 38.4 µM in the assay with CAKI-1 renal; 64.5 µM in the assay with CCRF-CEM leukemia; 64.1 µM with EKVX NSCLC; 38.8 µM in the assay with HCC-2998 colon. The TGI with HCT-15 colon was 61.1 µM; in the assay with IGROV1 ovarian, greater than 100 µM; in the assay with K-562 leukemia, 46.9 µM; in the assay on MDA-MB-231 breast, greater than 100 µM; with NCI/ADR-RES ovarian it was 44.1 µM; with SF-539 CNS it was 33.3 µM. Further, the TGI is greater than 100 µM in the assay on SK-OV-3 ovarian and 65.9 µM in the assay with UACC-257 melanoma.
With `COC(=O)C(Cc1ccccc1)NC(=O)CSc1nnc(COc2ccc(Cl)cc2)n1-c1ccccc1` (centres undefined), the TGI was greater than 100 µM in the assay with A549 NSCLC; 69.6 µM in the assay on BT-549 breast; 63.3 µM in the assay with CCRF-CEM leukemia; 31.8 µM in the assay with HCC-2998 colon; greater than 100 µM in the assay with HCT-15 colon; 76.7 µM with HOP-92 NSCLC. The TGI with HS 578T breast was greater than 100 µM; with IGROV1 ovarian it was greater than 100 µM; in the assay on K-562 leukemia, greater than 100 µM; in the assay with MDA-MB-231 breast it was 41.8 µM; in the assay on NCI-H460 lung, 35.7 µM; with NCI/ADR-RES ovarian, 55.2 µM. Further, the values for the TGI in the assay on SF-539 CNS, in the assay with SK-OV-3 ovarian and with UACC-257 melanoma were 51.3 µM, 63 µM and 26.2 µM, respectively.
With `CC(C)OC(=O)NCCn1cc(-c2ccccc2)nn1`, the TGI in the assay on A549 NSCLC, with BT-549 breast, with CAKI-1 renal, in the assay with CCRF-CEM leukemia, in the assay with EKVX NSCLC and with HCC-2998 colon was greater than 100 µM throughout. For the same compound, the TGI in the assay on HCT-15 colon, with HOP-92 NSCLC, with K-562 leukemia, in the assay with MDA-MB-231 breast, with NCI-H460 lung and in the assay with NCI/ADR-RES ovarian was greater than 100 µM throughout. Further, the TGI in the assay on SF-539 CNS and in the assay on UACC-257 melanoma was greater than 100 µM throughout.
As to `O=C(O)c1cc(CCc2ccc(O)c(O)c2)ccc1O`, the TGI with A549 NSCLC, in the assay on BT-549 breast, in the assay on CAKI-1 renal, in the assay on CCRF-CEM leukemia, in the assay on HCC-2998 colon and in the assay with HCT-15 colon was greater than 100 µM throughout. For the same compound, the TGI with HS 578T breast is greater than 100 µM; in the assay with IGROV1 ovarian it was greater than 100 µM; in the assay with K-562 leukemia, 45.8 µM; in the assay on NCI-H460 lung, greater than 100 µM; in the assay on NCI/ADR-RES ovarian, greater than 100 µM; in the assay with SF-539 CNS, greater than 100 µM. The TGI in the assay with SK-OV-3 ovarian and in the assay with UACC-257 melanoma was greater than 100 µM each time.
For `O=C1c2ccccc2C(=O)N1/N=C1/SC(=Nc2ccccc2)C(=Nc2ccccc2)N1c1ccccc1`, the TGI is greater than 100 µM with A549 NSCLC; greater than 100 µM in the assay on BT-549 breast; greater than 100 µM with CAKI-1 renal; greater than 90.3 µM in the assay with CCRF-CEM leukemia; greater than 100 µM with EKVX NSCLC; greater than 100 µM in the assay with HCC-2998 colon. Further, the TGI in the assay with HCT-15 colon, in the assay with HOP-92 NSCLC, with HS 578T breast, in the assay with IGROV1 ovarian, in the assay with K-562 leukemia and with NCI-H460 lung was greater than 100 µM in each case. Besides, the TGI in the assay on NCI/ADR-RES ovarian, in the assay on SF-539 CNS and in the assay with UACC-257 melanoma was greater than 100 µM each time.
With `O=C(CCC(=O)c1ccsc1)c1ccsc1`, the TGI with A549 NSCLC, in the assay with BT-549 breast, with CAKI-1 renal, in the assay with HCC-2998 colon, in the assay on HCT-15 colon and in the assay with HOP-92 NSCLC was greater than 100 µM in each case. For the same compound, the TGI in the assay on HS 578T breast, in the assay with IGROV1 ovarian, in the assay on MDA-MB-231 breast, in the assay with NCI-H460 lung, with NCI/ADR-RES ovarian and in the assay with SF-539 CNS was greater than 100 µM each time. For the same compound, the TGI in the assay with SK-OV-3 ovarian and in the assay with UACC-257 melanoma was greater than 100 µM in each case.
